Results on 14 compounds are retold here after ChEMBL document CHEMBL1138518 (J Med Chem, 2009).

Data set [1] in a line: Dissociation constant, pKa of the compound. The data set is classed as physicochemical.
In data set [2] the target is Heat shock protein HSP 90-beta (Homo sapiens, UniProt P08238). Nature of the data set: Binding affinity to human recombinant HSP90.
The subject of data set [3] is SK-BR-3. Nature of the data set: Cytotoxicity against human SKBR3 cells after 72 hrs by celltiter-glo assay. The data set is classed as functional, cell-based. The conditions noted are these: Homo sapiens, SK-BR-3, 72 h. For orientation: Cellular ATP, detected with luciferase, serves as a proxy for viable cell number.
The nature of data set [4]: Chemical stability assessed as half life at pH 7.75. The data set is classed as physicochemical. The conditions noted are these: buffer.
The test system of data set [5] is CCRF-CEM. Description: Cytotoxicity against human paclitaxel-resistant CCRF-CEM cells after 72 hrs by celltiter-96 aqueous one solution assay. The data set is classed as functional, cell-based.
Data set [6] relates to MCF7. Nature of the data set: Cytotoxicity against human MCF7 cells after 72 hrs by celltiter-glo assay. The data set is classed as functional, cell-based. The conditions noted are these: MCF7, 72 h.
In data set [7] the test system is CCRF-CEM. Description: Cytotoxicity against human CCRF-CEM cells after 72 hrs by celltiter-96 aqueous one solution assay. The data set is classed as functional, cell-based.
The test system of data set [8] is A549. Nature of the data set: Cytotoxicity against human A549 cells after 72 hrs by celltiter-glo assay. The settings on record: A549, 72 h. The data set is classed as functional, cell-based.
The subject of data set [9] is SK-OV-3. Nature of the data set: Cytotoxicity against human SKOV3 cells after 72 hrs by celltiter-glo assay. The data set is classed as functional, cell-based. The settings on record: SK-OV-3, 72 h.

Where only a bound is given, the exact number is not on record here.

Sequence of Heat shock protein HSP 90-beta (P08238 whole entry): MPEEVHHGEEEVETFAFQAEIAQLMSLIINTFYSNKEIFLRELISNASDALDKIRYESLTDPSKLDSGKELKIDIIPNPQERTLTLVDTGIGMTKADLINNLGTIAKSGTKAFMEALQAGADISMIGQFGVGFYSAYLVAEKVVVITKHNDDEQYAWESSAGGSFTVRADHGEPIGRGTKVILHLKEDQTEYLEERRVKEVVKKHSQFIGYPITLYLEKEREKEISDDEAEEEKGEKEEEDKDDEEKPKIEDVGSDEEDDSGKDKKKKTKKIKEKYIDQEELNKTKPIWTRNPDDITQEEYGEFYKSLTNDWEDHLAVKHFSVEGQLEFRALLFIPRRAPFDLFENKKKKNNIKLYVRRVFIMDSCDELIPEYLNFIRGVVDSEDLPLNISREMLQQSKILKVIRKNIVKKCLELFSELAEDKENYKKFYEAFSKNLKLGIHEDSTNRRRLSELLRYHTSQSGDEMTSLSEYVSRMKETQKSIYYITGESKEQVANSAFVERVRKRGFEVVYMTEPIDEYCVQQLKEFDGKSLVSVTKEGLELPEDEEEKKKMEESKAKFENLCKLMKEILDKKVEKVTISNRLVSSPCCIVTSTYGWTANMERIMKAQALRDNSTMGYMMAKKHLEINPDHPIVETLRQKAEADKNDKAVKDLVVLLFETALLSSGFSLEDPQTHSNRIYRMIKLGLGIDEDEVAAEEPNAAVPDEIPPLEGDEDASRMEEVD

Consider `CO[C@H]1/C=C\C=C(/C)C(=O)NC2=CC(=O)C(NCCN(C)C)=C(C[C@@H](C)C[C@H](OC)[C@H](NCCF)[C@@H](C)/C=C(\C)[C@@H]1OC(N)=O)C2=O` (stereo in doubt), for which, in data set [1], the pKa (as a rule, the negative logarithm of the acid dissociation constant) was determined as 9. Moreover, the Kd (as a rule, the free concentration of one partner at which half of the binding sites on the other are occupied at equilibrium, for simple one-to-one binding) in data set [2] was above 50 µM. Also, the IC50 (as a rule, the concentration that inhibits the measured activity by half) in [3] was found to be 390 nM.
On to `C=CCNC1=C2C[C@@H](C)C[C@H](OC)[C@H](OC(=O)CCN)[C@@H](C)/C=C(\C)[C@H](OC(N)=O)[C@@H](OC)/C=C\C=C(/C)C(=O)NC(=CC1=O)C2=O` (stereo in doubt), for which the Kd in data set [2] was above 25 µM. Moreover, the half-life (usually the time needed for the level to fall by half in the phase considered) in data set [4] was 5.42 days. Besides, the IC50 in [3] turned out to be 1800 nM.
In turn, `CO[C@H]1/C=C\C=C(/C)C(=O)NC2=CC(=O)C(NCCN(C)C)=C(C[C@@H](C)C[C@H](OC)[C@H](NCC(F)F)[C@@H](C)/C=C(\C)[C@@H]1OC(N)=O)C2=O` (stereo in doubt) came in with a pKa in data set [1] of 7.5. The Kd in data set [2] was found to be 2.9 µM. In addition, half-maximal inhibition in [3] (IC50) was put at 370 nM.
Taken in the same sequence, the figures for `CO[C@H]1/C=C\C=C(/C)C(=O)NC2=CC(=O)C(NCCN(C)C)=C(C[C@@H](C)C[C@H](OC)[C@H](NCC(F)(F)F)[C@@H](C)/C=C(\C)[C@@H]1OC(N)=O)C2=O` (stereo in doubt) were 5.7, 4 µM and 270 nM.
As for `COC1=C2C[C@@H](C)C[C@H](OC)[C@H](OC(=O)CCN)[C@@H](C)/C=C(\C)[C@H](OC(N)=O)[C@@H](OC)/C=C\C=C(/C)C(=O)NC(=CC1=O)C2=O` (stereo in doubt), the Kd in data set [2] was above 25 µM. The half-life in data set [4] was 8.33 days. Also, in data set [3], the half-maximal inhibitory concentration (IC50) was found to be 1700 nM.
In the same order, the values of `C=CCNC1=C2C[C@@H](C)C[C@H](OC)[C@H](OC(=O)CN)[C@@H](C)/C=C(\C)[C@H](OC(N)=O)[C@@H](OC)/C=C\C=C(/C)C(=O)NC(=CC1=O)C2=O` (stereo in doubt) are above 25 µM, 3.25 days and 350 nM.
For the compound `CO[C@H]1/C=C\C=C(/C)C(=O)NC2=CC(=O)C(NCCN(C)C)=C(C[C@@H](C)C[C@H](OC)[C@H](NCCC(F)(F)F)[C@@H](C)/C=C(\C)[C@@H]1OC(N)=O)C2=O` (stereo in doubt), the pKa in data set [1] is 8.9. In addition, the Kd in data set [2] is above 10 µM. The compound also came in with an IC50 in [3] of 830 nM.
For `CO[C@H]1[C@@H](OC)C[C@H](C)CC2=C(NCCc3c[nH]cn3)C(=O)C=C(NC(=O)/C(C)=C/C=C\[C@H](OC)[C@@H](OC(N)=O)/C(C)=C/[C@@H]1C)C2=O` (stereo in doubt), the IC50 in data set [5] is 3000 nM; in data set [6], 160 nM; in data set [7] it was 510 nM; in [8], 420 nM; in data set [9], 320 nM; in data set [3] it was 60 nM. Moreover, in data set [2], the Kd is 2 µM.
With `CNCCNC1=C2C[C@@H](C)C[C@H](OC)[C@H](OC(=O)CN)[C@@H](C)/C=C(\C)[C@H](OC(N)=O)[C@@H](OC)/C=C\C=C(/C)C(=O)NC(=CC1=O)C2=O` (stereo in doubt), in data set [2], the Kd is above 25 µM. Moreover, the half-life in data set [4] is 3.08 days. This compound registered a 50% inhibitory concentration (IC50) in [3] of 340 nM.
For `CO[C@H]1/C=C\C=C(/C)C(=O)NC2=CC(=O)C(NCCN(C)C)=C(C[C@@H](C)C[C@H](OC)[C@H](NCCN(C)C)[C@@H](C)/C=C(\C)[C@@H]1OC(N)=O)C2=O` (stereo in doubt), in data set [1], the pKa is 6. Also, the Kd in data set [2] was above 50 µM. Further, it took 460 nM to reach half-maximal inhibition in [3] (IC50).
In turn, `CO[C@H]1/C=C\C=C(/C)C(=O)NC2=CC(=O)C(NCCN(C)C)=C(C[C@@H](C)C[C@H](OC)[C@H](N)[C@@H](C)/C=C(\C)[C@@H]1OC(N)=O)C2=O` (stereo in doubt) showed a pKa in data set [1] of 9.2. Moreover, the Kd in data set [2] is above 25 µM. This compound also showed an IC50 in data set [3] of 415 nM.
`CO[C@H]1[C@@H](OC)C[C@H](C)CC2=C(N)C(=O)C=C(NC(=O)/C(C)=C/C=C\[C@H](OC)[C@@H](OC(N)=O)/C(C)=C/[C@@H]1C)C2=O`: the IC50 in data set [5] was 850 nM; in data set [6], 350 nM; in data set [7] it was 250 nM; in data set [8], 37 nM; in data set [9], 200 nM; in [3] it was 84 nM. The Kd in data set [2] was found to be 0.32 µM.
For the compound `COC1=C2C[C@@H](C)C[C@H](OC)[C@H](OC(=O)CN)[C@@H](C)/C=C(\C)[C@H](OC(N)=O)[C@@H](OC)/C=C\C=C(/C)C(=O)NC(=CC1=O)C2=O` (stereo in doubt), the Kd in data set [2] is above 25 µM. Further, the half-life in data set [4] was 3.96 days. The compound also registered an IC50 in data set [3] of 480 nM.
Taken in the same sequence, the figures for `COC1=C2C[C@@H](C)C[C@H](OC)[C@H](OC(=O)CCCN)[C@@H](C)/C=C(\C)[C@H](OC(N)=O)[C@@H](OC)/C=C\C=C(/C)C(=O)NC(=CC1=O)C2=O` (stereo in doubt) were above 10 µM, above 14.6 days and above 1000 nM.
